Experimental data: patent publication US20240383850A1, “INDOLE DERIVATIVES AS SEROTONERGIC AGENTS USEFUL FOR THE TREATMENT OF DISORDERS RELATED THERETO” (Mindset Pharma Inc., priority 2021, published 2024)
Where two headings read alike, the source gives them in different places.

How the values were obtained:
C57BL/6J mice [1] = test: Behavioural responses indicative of serotonin syndrome and motor activity, observed in the mouse head twitch study; type: in vivo
Procedure: (§1) The effect of different doses of representative compounds of Formula I was evaluated on head-twitch response (HTR) and other behavioural responses indicative of serotonin syndrome as behavior-based models of psychedelic activity.
(§2) Male, C57BL/6J mice (body weight range 20-30 g) were dosed with the appropriate dose of test article, and following a 1-minute pre-treatment time, placed in individual observation chambers. Animals were visually assessed for the incidence head twitches continuously over a 1 hr period. Head twitches were defined as a rapid jerk of the head which was not elicited by an external tactile stimulus (Come and Pickering, Psychopharmacologia, 1967, 11(1): 65-78). Each head twitch was individually counted by a trained observer, and the data expressed as the mean±SEM of 6-10 mice per group. Mice were used in a single experiment only.

C57BL/6J mice [2] = test: Mouse head twitch response (HTR); type: in vivo; conditions: for duration of HT expression: at 10-30 mg/kg
Procedure: as §1, §2

human 5-HT2A receptor [3] = biological target: T1, human 5-HT2A receptor (Homo sapiens, UniProt P28223); test: biochemical
T1 sequence (P28223 whole entry): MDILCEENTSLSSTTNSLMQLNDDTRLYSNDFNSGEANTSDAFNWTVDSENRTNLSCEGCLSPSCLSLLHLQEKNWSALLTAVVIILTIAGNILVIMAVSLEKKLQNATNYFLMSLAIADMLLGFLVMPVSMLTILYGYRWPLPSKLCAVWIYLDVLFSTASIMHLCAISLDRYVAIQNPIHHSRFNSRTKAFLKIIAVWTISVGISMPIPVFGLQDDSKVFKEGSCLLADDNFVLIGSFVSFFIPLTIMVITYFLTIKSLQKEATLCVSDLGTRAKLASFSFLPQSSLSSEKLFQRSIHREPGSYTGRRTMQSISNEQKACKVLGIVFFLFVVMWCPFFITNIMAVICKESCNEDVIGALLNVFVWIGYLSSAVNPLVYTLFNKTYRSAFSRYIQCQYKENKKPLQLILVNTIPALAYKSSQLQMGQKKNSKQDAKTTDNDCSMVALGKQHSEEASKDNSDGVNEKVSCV

[4] = biological target: human 5-HT2A (h5-HT2A) receptor (Homo sapiens, UniProt P28223); test: FLIPR calcium assay, human 5-HT2A, agonist mode
human 5-HT2A (h5-HT2A) receptor, sequence (P28223 whole entry): as above

human 5-HT2A receptor [5] = biological target: T1, human 5-HT2A receptor; conditions: read-out: h5-HT2A IC50; competition with [3H]-ketanserin, cell membranes

SMILES	IC50 (human 5-HT2A receptor [3]) [µM]	EC50 [4] [µM]	further results
[2H]C([2H])(c1c[nH]c2ccc(OC)cc12)[C@H]1CCCN1C(=O)CCCCCCC/C=C\C/C=C\CCCCC [(R)—I-51]	–	–	motor activity (C57BL/6J mice [1]; 1-30 mg/kg, not formally measured): did not reduce motor activity; signs of 5-HT syndrome (whole body twitches, FPT, Straub tail) (C57BL/6J mice [1]; up to 60 mg/kg SC): did not induce signs of 5-HT syndrome; ED50 (C57BL/6J mice [2]; Mus musculus, male C57BL/6J mice, SC, head twitches counted over 1 hr): 2.8 mg/kg; head twitch response expression (C57BL/6J mice [2]; mice, 1-60 mg/kg SC, compared to 5-MeO DMT): elicited a robust head twitch response expression; duration of HT expression (C57BL/6J mice [2]; mice, SC): 0 to 30 min
COc1ccc2[nH]cc(CCN(C)C)c2c1 [Compound 5-MeO-DMT, 5-MeO-DMT, reference compound]	–	–	ED50 head twitch response (C57BL/6J mice [2]; male C57BL/6J mice, SC, head twitches counted over 1 hr): 8 mg/kg; duration of HT expression (C57BL/6J mice [2]; mice, SC): 0 to 20 min
CCCCC/C=C\C/C=C\CCCCCCCC(=O)N(C)CCc1c[nH]c2ccccc12 [Compound I-1, (9Z,12Z)—N-(2-(1H-Indol-3-yl)ethyl)-N-methyloctadeca-9,12-dienamide]	10 to 30	> 30	–
CCCCC/C=C\C/C=C\CCCCCCCC(=O)N(C)CCc1c[nH]c2ccc(OC)cc12 [Compound I-21, (9Z,12Z)—N-(2-(5-Methoxy-1H-indol-3-yl)ethyl)-N-methyloctadeca-9,12-dienamide]	10 to 30	> 30	–
CCCCC/C=C\C/C=C\CCCCCCCC(=O)N1CCC[C@@H]1Cc1c[nH]c2ccccc12 [Compound I-46, (9Z,12Z)-1-((R)-2-((1H-Indol-3-yl)methyl)pyrrolidin-1-yl)octadeca-9,12-dien-1-one]	> 30	> 30	–
CCCCC/C=C\C/C=C\CCCCCCCC(=O)N1CCC[C@@H]1Cc1c[nH]c2ccc(OC)cc12 [Compound I-55, (9Z,12Z)-1-((R)-2-((5-Methoxy-1H-indol-3-yl)methyl)pyrrolidin-1-yl)octadeca-9,12-dien-1-one]	> 30	> 30	–
CCCCC/C=C\C/C=C\CCCCCCCC(=O)N1CCC(c2c[nH]c3ccc(OC)cc23)C1 (stereo not shown) [Compound I-81, (9Z,12Z)-1-(3-(5-Methoxy-1H-indol-3-yl)pyrrolidin-1-yl)octadeca-9,12-dien-1-one]	> 30	> 30	–
CCCCC/C=C\C/C=C\CCCCCCCC(=O)N1CCC(c2c[nH]c3ccccc23)C1 (stereo not shown) [Compound I-84, (9Z,12Z)-1-(3-(1H-Indol-3-yl)pyrrolidin-1-yl)octadeca-9,12-dien-1-one]	10 to 30	> 30	–
CCCCC/C=C\C/C=C\CCCCCCCC(=O)N1CCC(c2c[nH]c3ccccc23)CC1 [Compound I-87, (9Z,12Z)-1-(4-(1H-Indol-3-yl)piperidin-1-yl)octadeca-9,12-dien-1-one]	10 to 30	> 30	–
CCCCC/C=C\C/C=C\CCCCCCCC(=O)N1CCC(c2c[nH]c3ccc(OC)cc23)CC1 [Compound I-88, (9Z,12Z)-1-(4-(5-Methoxy-1H-indol-3-yl)piperidin-1-yl)octadeca-9,12-dien-1-one]	10 to 30	> 30	–
CN(C)CCc1c[nH]c2ccccc12 [DMT]	–	–	EC50 ([4]; read-out: h5-HT2A EC50, FLIPR calcium assay, agonist mode): < 10 µM; IC50 (human 5-HT2A receptor [5]): < 10 µM
